# According to US9333193B2, “Compositions and methods for treating tuberculosis” (priority 2010, dated 2016):
# Where two headings read alike, the source gives them in different places.
# Assays:
# [1] = tested on: M. tuberculosis; assay: microbe, parasite or virus in culture; assay type: cell-based, Mycobacterium tuberculosis; parameters: % Inhibit growth, H37Rv / % Inhibit growth, Susceptible / % Inhibit growth, MDR / % Inhibit growth, XDR / inhibition: dose or concentration left out as unconfirmed; details: for % Inhibit growth, MDR: MDR strain; for % Inhibit growth, MDR / % Inhibit growth, Susceptible / % Inhibit growth, XDR / % Inhibit growth, H37Rv / Potency against M. tuberculosis in words (Table 1): agar proportion method; for % Inhibit growth, Susceptible: Susceptible strain; for % Inhibit growth, XDR: XDR strain; for % Inhibit growth, H37Rv: strain H37Rv; for inhibition: Mycobacterium tuberculosis
# [2] = tested on: Mycobacterium smegmatis mc2155; assay: Anti-mycobacterial activity of nitazoxanides, MIC in Middlebrook 7H9; assay type: cell-based; details: Middlebrook 7H9, 37° C.; for MIC: Mycolicibacterium smegmatis, MC2155, read-out: Minimal Inhibitory Concentration, M. smegmatis
# Method: (§1) (1) Strains: Mycobacterium smegmatis mc2155, Mycobacterium chelonae EOP-1, Mycobacterium marinum ATCC 927, Mycobacterium avium Va14(T), and Mycobacterium abscessus AAy-P-1).
# (§2) (2) Medium: Middlebrook 7H9 containing 0.5% (vol/vol) glycerol and 10% (vol/vol) oleic acid-albumin.
# (§3) (3) Incubation Temperature: 37° C., except M. marinum 30° C.
# (§4) (4) Nitazoxanides: Precipitates were present in wells of nitazoxanides with high concentrations (250-31 μg/mL) except for 162080, 162088, 16b2026, and 16b2031.
# (5) Decolorization: Almost all the yellow nitazoxanides, namely 16b1090, 16b1092 and 16b1093, 16b1094, 16b2023, 16b2025, and 16b2026 were decolorized by M. smegmatis strain mc2155. None of the other mycobacterial strains decolorized the compounds. Note that the compound numbers are also referred to herein with the prefix VPC.
# (§5) The strains used were Mycobacterium smegmatis mc2155, Mycobacterium chelonae EOP-1, Mycobacterium marinum ATCC 927, Mycobacterium avium Va14(T), and Mycobacterium abscessus AAy-P-1. The medium use was Middlebrook 7H9 containing 0.5% (vol/vol) glycerol and 10% (vol/vol) oleic acid-albumin. Incubation Temperature was 37° C., except for M. marinum at 30° C. For nitazoxanides, precipitates were present in wells of nitazoxanides with high concentrations (250-31 μg/mL) except for 162080, 162088, 16b2026, and 16b2031.
# Decolorization: Almost all the yellow nitazoxanides, namely 16b1090, 16b1092 and 16b1093, 16b1094, 16b2023, 16b2025, and 16b2026 were decolorized by M. smegmatis strain mc2155. None of the other mycobacterial strains decolorized the compounds.
# [3] = tested on: Mycobacterium abscessus AAy-P-1; assay: as above; assay type: cell-based; details: Middlebrook 7H9, 37° C.; for MIC: Mycobacteroides abscessus, AAYP1, read-out: Minimal Inhibitory Concentration, M. abscessus
# Method: as §1, §2, §3, §4, §5
# [4] = tested on: Mycobacterium avium Va14(T); assay: as above; assay type: cell-based; details: Middlebrook 7H9, 37° C.; for MIC: Mycobacterium avium, read-out: Minimal Inhibitory Concentration, M. avium
# Method: as §1, §2, §3, §4, §5
# [5] = tested on: Mycobacterium chelonae EOP-1; assay: as above; assay type: cell-based; details: Middlebrook 7H9, 37° C.; for MIC: read-out: Minimal Inhibitory Concentration, M. chelonae
# Method: as §1, §2, §3, §4, §5
# [6] = tested on: Mycobacterium marinum ATCC 927; assay: as above; assay type: cell-based; details: Middlebrook 7H9, 30° C.; for MIC: Mycobacterium marinum, ATCC927, read-out: Minimal Inhibitory Concentration, M. marinum
# Method: as §1, §2, §3, §4, §5
# [7] = tested on: Mycobacterium tuberculosis; assay: microbe, parasite or virus in culture; details: agar proportion
# [8] = tested on: TB organisms; details: cited from earlier work
# [9] = read-out: % Inhibit growth, MDR
# [10] = read-out: % Inhibit growth, XDR
# [11] = H37RV, isolate H37Rv (Reference)
SMILES,"% Inhibit growth, MDR [1]","% Inhibit growth, Susceptible [1]","% Inhibit growth, XDR [1]","% Inhibit growth, H37Rv [1]","inhibition [1, 9]","inhibition [1, 10]",MIC [2],MIC [3],MIC [4],MIC [5],MIC [6],also measured
O=C(Nc1nc(Cl)c([N+](=O)[O-])s1)c1ccccc1 [VPC162087],100%,97%,100%,97%,,,,,,,,"Minimal Inhibitory Concentration, M. smegmatis [2]: 31 µg/mL; Minimal Inhibitory Concentration, M. abscessus [3]: >250 µg/mL; Minimal Inhibitory Concentration, M. avium [4]: 125 µg/mL; Minimal Inhibitory Concentration, M. chelonae [5]: 16 µg/mL; Minimal Inhibitory Concentration, M. marinum [6]: 16 µg/mL"
CCCCCC(=O)Nc1sc([N+](=O)[O-])cc1[N+](=O)[O-] [VPC16b1089],0%,0%,0%,0%,,,,,,,,"Minimal Inhibitory Concentration, M. smegmatis [2]: 125 µg/mL; Minimal Inhibitory Concentration, M. abscessus [3]: 4. μg/mL; Minimal Inhibitory Concentration, M. avium [4]: 63 µg/mL; Minimal Inhibitory Concentration, M. chelonae [5]: 31 µg/mL; Minimal Inhibitory Concentration, M. marinum [6]: 16 µg/mL"
"O=C(Nc1ncc([N+](=O)[O-])s1)c1ccc(Cl)c(C(F)(F)F)c1 [VPC16a1060, 4-Chloro-N-(5-nitrothiazol-2-yl)-3-(trifluoromethyl)benzamide]",,,,,98%,90%,,,,,,
O=C(Nc1sc([N+](=O)[O-])cc1[N+](=O)[O-])c1ccccc1 [VPC16b1090],,,,,100%,100%,16 µg/mL,0.5 µg/mL,8 µg/mL,1 µg/mL,4 µg/mL,"Potency against M. tuberculosis in words (Table 1) [1]: most potent; MIC [7, 11]: 4000 µg/mL; MIC ([7]; isolate 234 (MDR-TB)): 4000 µg/mL; MIC ([7]; isolate 283 (susceptible)): 4000 µg/mL; MIC ([7]; isolate 565 (MDR-TB)): 4000 µg/mL; MIC ([7]; isolate 694 (MDR-TB)): 2000 µg/mL; MIC ([7]; isolate 750 (MDR-TB)): 4000 µg/mL; MIC ([7]; isolate 823 (XDR-TB)): 4000 µg/mL; MIC ([7]; isolate 971 (MDR-TB)): 2000 µg/mL"
O=C(Nc1sc([N+](=O)[O-])cc1[N+](=O)[O-])c1ccoc1 [VPC16b1094],,,,,100%,100%,16 µg/mL,2 µg/mL,16 µg/mL,2 µg/mL,4 µg/mL,"Potency against M. tuberculosis in words (Table 1) [1]: most potent; MIC [7, 11]: 4000 µg/mL; MIC ([7]; isolate 234 (MDR-TB)): 4000 µg/mL; MIC ([7]; isolate 283 (susceptible)): 4000 µg/mL; MIC ([7]; isolate 565 (MDR-TB)): 4000 µg/mL; MIC ([7]; isolate 694 (MDR-TB)): 4000 µg/mL; MIC ([7]; isolate 750 (MDR-TB)): 4000 µg/mL; MIC ([7]; isolate 823 (XDR-TB)): 4000 µg/mL; MIC ([7]; isolate 971 (MDR-TB)): 4000 µg/mL"
"CC(=O)Oc1ccccc1C(=O)Nc1ncc([N+](=O)[O-])s1 [Nitazoxanide, 2-(acetyloxy)-N-(5-nitro-2-thiazolyl)benzamide, reference compound]",,,,,,,> 250 µg/mL,63 µg/mL,250 µg/mL,63 µg/mL,31 µg/mL,Action against TB in presence of proteins found in serum [8]: inhibited by proteins that would be found in serum
"CC(C)(C)OC(=O)Nc1ccccc1C(=O)Nc1ncc([N+](=O)[O-])s1 [VPC162047, tert-Butyl 2-(5-nitrothiazol-2-ylcarbamoyl)phenylcarbamate]",,,,,92%,50%,,,,,,
O=C(Nc1ncc([N+](=O)[O-])s1)c1cc2ccccc2s1 [VPC161180],0%,0%,50%,80%,,,,,,,,
